What all share (assay type): in vitro ADME
Data set [1] addresses CYP2C8 (Homo sapiens, UniProt P10632). Nature of the data set: In vitro CYP inhibition.
Data set [2] concerns the target CYP2B6 (Homo sapiens, UniProt P20813). The following applies: in vitro.
Data set [3] concerns the target OATP1B3 (Homo sapiens, UniProt Q9NPD5). Nature of the data set: In vitro transporter substrate assessment.
The target in data set [4] is CYP2E1 (Homo sapiens, UniProt P05181). Nature of the data set: In vitro CYP inhibition.
Chain of CYP2E1 (P05181 whole entry): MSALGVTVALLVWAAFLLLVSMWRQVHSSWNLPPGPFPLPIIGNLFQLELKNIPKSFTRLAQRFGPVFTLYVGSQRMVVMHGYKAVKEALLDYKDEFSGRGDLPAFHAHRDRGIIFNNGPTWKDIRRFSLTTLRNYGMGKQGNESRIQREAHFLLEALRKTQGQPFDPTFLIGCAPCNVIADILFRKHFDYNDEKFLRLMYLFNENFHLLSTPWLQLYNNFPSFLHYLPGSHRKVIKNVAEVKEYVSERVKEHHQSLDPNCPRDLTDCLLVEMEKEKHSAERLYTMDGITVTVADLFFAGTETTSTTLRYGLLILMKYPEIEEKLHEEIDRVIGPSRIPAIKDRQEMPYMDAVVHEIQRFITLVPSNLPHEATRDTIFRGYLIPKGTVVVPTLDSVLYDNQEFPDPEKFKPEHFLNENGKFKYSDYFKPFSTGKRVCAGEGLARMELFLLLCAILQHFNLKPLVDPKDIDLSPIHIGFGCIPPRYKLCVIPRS
The target of data set [5] is bile salt export pump (Homo sapiens, UniProt O95342). Put plainly: In vitro transporter inhibition.
Chain of bile salt export pump (O95342 whole entry): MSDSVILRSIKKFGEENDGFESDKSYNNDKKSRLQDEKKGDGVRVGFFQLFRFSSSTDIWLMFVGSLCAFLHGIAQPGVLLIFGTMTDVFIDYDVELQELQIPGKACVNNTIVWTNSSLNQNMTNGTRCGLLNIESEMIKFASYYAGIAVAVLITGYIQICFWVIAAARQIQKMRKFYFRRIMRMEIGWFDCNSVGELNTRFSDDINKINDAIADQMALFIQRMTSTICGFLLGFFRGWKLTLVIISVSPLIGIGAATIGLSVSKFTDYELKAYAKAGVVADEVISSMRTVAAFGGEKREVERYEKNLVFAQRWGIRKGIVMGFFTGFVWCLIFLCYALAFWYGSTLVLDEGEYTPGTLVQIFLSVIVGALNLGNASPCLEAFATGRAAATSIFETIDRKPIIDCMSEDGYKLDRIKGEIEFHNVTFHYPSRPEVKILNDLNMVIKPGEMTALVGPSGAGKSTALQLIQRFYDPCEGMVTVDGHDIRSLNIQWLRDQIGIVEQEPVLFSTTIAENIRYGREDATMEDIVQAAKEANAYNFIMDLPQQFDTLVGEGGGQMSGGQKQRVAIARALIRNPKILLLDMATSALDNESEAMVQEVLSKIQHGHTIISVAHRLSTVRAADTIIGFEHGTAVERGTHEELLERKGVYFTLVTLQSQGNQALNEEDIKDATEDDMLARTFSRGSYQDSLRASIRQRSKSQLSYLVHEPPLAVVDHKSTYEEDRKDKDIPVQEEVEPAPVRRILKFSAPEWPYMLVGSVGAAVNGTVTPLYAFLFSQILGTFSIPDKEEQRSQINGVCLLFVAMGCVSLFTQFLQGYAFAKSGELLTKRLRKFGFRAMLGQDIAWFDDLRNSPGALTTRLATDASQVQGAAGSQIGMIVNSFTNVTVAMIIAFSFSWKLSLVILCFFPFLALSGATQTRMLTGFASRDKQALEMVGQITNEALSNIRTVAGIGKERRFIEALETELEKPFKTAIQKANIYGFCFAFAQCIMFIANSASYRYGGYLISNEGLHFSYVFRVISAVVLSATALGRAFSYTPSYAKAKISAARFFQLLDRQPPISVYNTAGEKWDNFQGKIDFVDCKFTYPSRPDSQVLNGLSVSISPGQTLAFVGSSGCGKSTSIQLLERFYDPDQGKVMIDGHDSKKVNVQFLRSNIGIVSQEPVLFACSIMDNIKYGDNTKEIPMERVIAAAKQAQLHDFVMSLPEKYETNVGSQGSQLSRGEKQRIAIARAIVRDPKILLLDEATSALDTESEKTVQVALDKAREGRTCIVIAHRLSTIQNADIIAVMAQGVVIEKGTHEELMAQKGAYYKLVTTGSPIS

Chain of CYP2C8 (P10632 whole entry): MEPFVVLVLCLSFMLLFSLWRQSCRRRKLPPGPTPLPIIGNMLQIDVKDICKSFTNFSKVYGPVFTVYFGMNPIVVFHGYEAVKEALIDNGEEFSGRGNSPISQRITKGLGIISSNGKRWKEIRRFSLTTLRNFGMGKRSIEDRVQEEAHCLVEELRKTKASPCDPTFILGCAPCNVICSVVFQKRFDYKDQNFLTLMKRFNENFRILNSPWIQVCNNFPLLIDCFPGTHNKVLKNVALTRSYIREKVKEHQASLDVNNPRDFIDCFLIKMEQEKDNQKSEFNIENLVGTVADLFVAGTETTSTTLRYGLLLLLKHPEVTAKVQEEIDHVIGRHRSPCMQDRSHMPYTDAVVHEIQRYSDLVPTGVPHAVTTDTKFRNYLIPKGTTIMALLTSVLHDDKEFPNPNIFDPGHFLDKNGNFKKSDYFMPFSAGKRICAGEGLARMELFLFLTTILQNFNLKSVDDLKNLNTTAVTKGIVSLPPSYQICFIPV
Chain of OATP1B3 (Q9NPD5 whole entry): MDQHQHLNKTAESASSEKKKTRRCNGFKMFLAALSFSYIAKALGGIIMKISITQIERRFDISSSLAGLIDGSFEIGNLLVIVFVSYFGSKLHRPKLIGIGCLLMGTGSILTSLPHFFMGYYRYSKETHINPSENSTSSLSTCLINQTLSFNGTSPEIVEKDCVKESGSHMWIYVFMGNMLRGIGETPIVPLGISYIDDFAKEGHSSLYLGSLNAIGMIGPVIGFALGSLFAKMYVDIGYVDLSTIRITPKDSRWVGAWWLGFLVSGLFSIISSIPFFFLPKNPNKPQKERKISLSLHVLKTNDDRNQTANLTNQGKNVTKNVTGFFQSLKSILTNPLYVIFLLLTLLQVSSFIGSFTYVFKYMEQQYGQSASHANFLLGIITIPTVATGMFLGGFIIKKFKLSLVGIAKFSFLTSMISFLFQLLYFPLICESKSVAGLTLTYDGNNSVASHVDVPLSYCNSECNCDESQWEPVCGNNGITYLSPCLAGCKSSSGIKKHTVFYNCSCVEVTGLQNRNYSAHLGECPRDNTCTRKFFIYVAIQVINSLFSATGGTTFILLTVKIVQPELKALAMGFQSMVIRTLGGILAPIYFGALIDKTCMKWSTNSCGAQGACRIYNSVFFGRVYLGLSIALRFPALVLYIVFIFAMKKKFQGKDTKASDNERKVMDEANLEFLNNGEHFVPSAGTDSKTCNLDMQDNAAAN
Chain of CYP2B6 (P20813 whole entry): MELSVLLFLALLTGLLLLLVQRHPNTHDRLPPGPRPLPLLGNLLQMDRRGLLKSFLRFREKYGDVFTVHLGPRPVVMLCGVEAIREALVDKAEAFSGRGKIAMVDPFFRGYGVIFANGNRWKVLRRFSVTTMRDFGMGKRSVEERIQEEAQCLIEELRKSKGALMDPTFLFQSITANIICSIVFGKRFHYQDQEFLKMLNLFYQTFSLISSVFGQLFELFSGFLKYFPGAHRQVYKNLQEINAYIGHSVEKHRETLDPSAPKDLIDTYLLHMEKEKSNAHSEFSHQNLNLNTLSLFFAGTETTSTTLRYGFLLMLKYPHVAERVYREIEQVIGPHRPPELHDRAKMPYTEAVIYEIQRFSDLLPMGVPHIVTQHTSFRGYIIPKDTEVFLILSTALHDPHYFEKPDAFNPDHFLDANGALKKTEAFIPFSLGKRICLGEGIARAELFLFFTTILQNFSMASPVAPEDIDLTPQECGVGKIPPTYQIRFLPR

Regarding `Cc1ncc(OC[C@@]2(c3cccc(F)c3)C[C@H]2C(=O)Nc2ccc(F)cn2)c(C)n1` [Lemborexant, (1R,2S)‐2‐{[(2,4‐dimethylpyrimidin‐5‐yl)oxy]methyl}‐2‐(3‐fluorophenyl)‐N‐(5‐fluoropyridin‐2‐yl)cyclopropanecarboxamide], the “inhibition of CYP2C8” value in data set [1] is “do not inhibit”. In data set [2], the “inhibition of CYP2B6” value is “do not inhibit”. Also, the “substrate of OATP1B3” value in data set [3] is on record as “neither lemborexant nor M10 was a substrate”. Further, the “inhibition of CYP2E1” value in data set [4] is given as “do not inhibit”. For the same compound, in data set [5], the “inhibition of bile salt export pump” value is “do not inhibit”.

(Values after PMC8248323 (Clinical Pharmacology in Drug Development, 2021).)
